This data set deals with KRAS. To be noted: ASO.

“And” between values parts separate entries of the source, which are not always exact repeats. Equal values may be shown once. After the bases stand the sugars from the 5' end (letter, count) and the backbone: PS all phosphorothioate, else s phosphorothioate and o phosphodiester by linkage. Methylation of C is not given here. e = 2'-O-(2-methoxyethyl) (MOE); k = constrained ethyl (cEt); d = 2'-deoxy (DNA)

Consider TCTCTATGAAAGCTCA (sugars k3 d10 k3, PS), for which the target mRNA inhibition reads like this: (A431, 0.037 µM) 61%; (A431, 2 µM) 50%; (A431, 5 µM) 96% and 92%; (NCI-H460, 0.037 µM) 49.7%.
Regarding TGACTAATAGCAGTGG (sugars k3 d10 k3, PS), the target mRNA inhibition by setting is: (A431, 0.037 µM) 64%; (A431, 2 µM) 58%; (A431, 5 µM) 96% and 93%; (NCI-H460, 0.037 µM) 53.3%.
On to “TGATTTGTCAGCAGGA (sugars k3 d9 k3 e1, PS)”, for which the target mRNA inhibition reads like this: (A431, 0.185 µM) 26%; (A431, 0.556 µM) 52%; (A431, 1.667 µM) 70%; (A431, 2 µM) 63%; (A431, 5 µM) 80%.
Regarding TGATTTGTCAGCAGGA (sugars k3 d10 k3, PS), the target mRNA inhibition is 19% and 0% (A431, 0.185 µM); 58% and 36% (A431, 0.556 µM); 72% and 58% (A431, 1.667 µM); 59% (A431, 2 µM); 81% and 74% (A431, 5 µM).
On to “TGATTTGTCAGCAGGA (sugars kddddddddddkekek, PS)”, for which the target mRNA inhibition (A431, 2 µM) is 47%.
For “TGATTTGTCAGCAGGA (sugars kkdddddddddkekek, PS)”, under “A431, 2 µM”, the target mRNA inhibition is 45%.
Sequence TGGTGTAACATAGGTT (sugars k3 d10 k3, PS) registered a target mRNA inhibition (A431, 0.185 µM) of 0%; a target mRNA inhibition (A431, 0.556 µM) of 35%; a target mRNA inhibition (A431, 1.667 µM) of 61%; a target mRNA inhibition (A431, 2 µM) of 58%; a target mRNA inhibition (A431, 5 µM) of 78%.
For “TGGTGTAACATAGGTT (sugars kkddddddddkekekk, PS)” the same measures were 11%, 33%, 58%, 55% and 68%.
With TGTAAATATAGCCCCA (sugars k3 d10 k3, PS), the target mRNA inhibition (A431, 2 µM) is 34%.
As to TGTACTAGTATGCCTT (sugars k3 d10 k3, PS), the target mRNA inhibition by setting is: (A431, 0.185 µM) 18% and 9%; (A431, 1.667 µM) 61% and 43%; (A431, 2 µM) 66%; (A431, 5 µM) 74% and 64%.
For the setting “A431, 2 µM”, TGTAGGGCATTTCTGA (sugars k3 d10 k3, PS) came in with a target mRNA inhibition of 0%.
The same measure, in the same setting: then TGTTGAGCTATCCAAA (sugars k3 d10 k3, PS), with 37%.
In the case of “TGTTTATGCAATGTTA (sugars kkdddddddddkekek, PS)”, the target mRNA inhibition by setting is: (A431, 0.185 µM) 50%; (A431, 0.556 µM) 46%; (A431, 1.667 µM) 69%; (A431, 2 µM) 56%; (A431, 5 µM) 82%.
For the sequence TTAATGTCACAAGCAG (sugars k3 d10 k3, PS), the target mRNA inhibition (A431, 2 µM) was determined as 52%.
The same measure, in the same setting: then TTACTTTTTGACAAAT (sugars k3 d10 k3, PS), with 0%; and TTAGGAGTCTTTATAG (sugars k3 d10 k3, PS), with 30%; and “TTAGTGATTAGGTCAA (sugars kkddddddddddkeke, PS)”, with 22%.
The same measure, in the same setting: in the case of TTCTGTCTATTCATAC (sugars k3 d10 k3, PS) it was 10%; in that of “TTGATTTGTCAGCAGG (sugars k3 d9 k3 e1, PS)”, 55% and 30%.
Take TTGATTTGTCAGCAGG (sugars k3 d10 k3, PS): the target mRNA inhibition was 41% (A431, 0.185 µM); 60% (A431, 0.556 µM); 77% (A431, 1.667 µM); 65% and 66% and 74% (A431, 2 µM); 87% (A431, 5 µM).
As for “TTGATTTGTCAGCAGG (sugars kdddddddddkekeke, PS)”, the target mRNA inhibition (A431, 2 µM) was found to be 22%.
Same read-out and setting: then “TTGATTTGTCAGCAGG (sugars kkkdddddddddkeke, PS)”, with 40%; and “TTGATTTGTCAGCAGG (sugars kkkddddddddkdkdk, PS)”, with 19%; and “TTGATTTGTCAGCAGG (sugars kkkddddddddkekek, PS)”, with 37% and 12%.
Regarding TTGCTATAATAATCCC (sugars k3 d10 k3, PS), the target mRNA inhibition (A431, 2 µM) stood at 39%.
With TTGTTTAAAAAAAAAA (sugars k3 d10 k3, PS), under “A431, 2 µM”, the target mRNA inhibition was 0%.
With TTTCTGATGTGACTCA (sugars k3 d10 k3, PS), the target mRNA inhibition reads like this: (A431, 0.185 µM) 0%; (A431, 0.556 µM) 23%; (A431, 1.667 µM) 43%; (A431, 2 µM) 57%; (A431, 5 µM) 60%.

The record behind these values is the OligoGym collection.
